Molecular target: USP14 (Homo sapiens, UniProt P54578)
Experiment: USP14 Inhibition Assay
Type: biochemical
Conditions: average value from a minimum of two experimental determinations, read-out: IC50 Category
Description: The activity of the compound described herein to inhibit USP14 can be measured using previously described methodology [B. H. Lee et al. Nature 2010, 467 (9), 179, the contents of which are expressly incorporated by reference herein].
Example 6: USP14 Inhibition Assay

SMILES | IC50 [nM]
Cc1cc(C(=O)CN2CCCCC2)c(C)n1[C@H]1CC[C@@H](C(=O)O)CC1 [Compound 46, cis-4-(2,5-Dimethyl-3-(2-(piperidin-1-yl)acetyl)-1H-pyrrol-1-yl)cyclohexanecarboxylic acid] | > 5000
Cc1cc(C(=O)CNC2CC2)c(C)n1-c1ccc(Cl)cc1 [Compound 48, 1-(1-(4-Chlorophenyl)-2,5-dimethyl-1H-pyrrol-3-yl)-2-(cyclopropylamino)ethanone] | 500 to 5000
Cc1cc(C(=O)CN2CCC(OCc3ccccc3)C2)c(C)n1-c1ccc(Cl)cc1 (stereo not shown) [Compound 49, 2-(3-(Benzyloxy)pyrrolidin-1-yl)-1-(1-(4-chlorophenyl)-2,5-dimethyl-1H-pyrrol-3-yl)ethanone] | 500 to 5000
Cc1cc(C(=O)CN2CCCC2CCO)c(C)n1-c1ccc(Cl)cc1 (stereo not shown) [Compound 50, 1-(1-(4-Chlorophenyl)-2,5-dimethyl-1H-pyrrol-3-yl)-2-(2-(2-hydroxyethyl)pyrrolidin-1-yl)ethanone] | 500 to 5000
Cc1cc(C(=O)CN2CCC(S(C)(=O)=O)C2)c(C)n1-c1ccc(Cl)cc1 (stereo not shown) [Compound 51, 1-(1-(4-Chlorophenyl)-2,5-dimethyl-1H-pyrrol-3-yl)-2-(3-(methylsulfonyl)pyrrolidin-1-yl)ethanone] | 500 to 5000
Cc1cc(C(=O)CN2CC[C@H](O)C2)c(C)n1-c1ccc(Cl)cc1 [Compound 52, (S)-1-(1-(4-Chlorophenyl)-2,5-dimethyl-1H-pyrrol-3-yl)-2-(3-hydroxypyrrolidin-1-yl)ethanone] | 500 to 5000
Cc1cc(C(=O)CN2CCC(C(F)(F)F)CC2)c(C)n1-c1ccc(Cl)cc1 [Compound 53, 1-(1-(4-Chlorophenyl)-2,5-dimethyl-1H-pyrrol-3-yl)-2-(4-(trifluoromethyl)piperidin-1-yl)ethanone] | 500 to 5000
CCCNC(=O)OC1CCCN(CC(=O)c2cc(C)n(-c3ccc(Cl)cc3)c2C)C1 (stereo not shown) [Compound 54, 1-(2-(1-(4-Chlorophenyl)-2,5-dimethyl-1H-pyrrol-3-yl)-2-oxoethyl)piperidin-3-yl propylcarbamate] | 500 to 5000
Cc1cc(C(=O)CN2CCC(N(C)C)C2)c(C)n1-c1ccc(Cl)cc1 (stereo not shown) [Compound 55, 1-(1-(4-Chlorophenyl)-2,5-dimethyl-1H-pyrrol-3-yl)-2-(3-(dimethylamino)pyrrolidin-1-yl)ethanone] | 500 to 5000
Cc1cc(C(=O)CN2CCCC2)c(C)n1-c1ccc(Br)c(Cl)c1 [Compound 56, 1-(1-(4-Bromo-3-chlorophenyl)-2,5-dimethyl-1H-pyrrol-3-yl)-2-(pyrrolidin-1-yl)ethanone] | 500 to 5000
Cc1cc(C(=O)CN2CCCCC2)c(C)n1-c1ccc(Br)c(Cl)c1 [Compound 57, 1-(1-(4-Bromo-3-chloropheny1)-2,5-dimethyl-1H-pyrrol-3-yl)-2-(piperidin-1-yl)ethanone] | 500 to 5000
Cc1cc(C(=O)CN2CCCCC2)c(C)n1-c1ccc(OC(F)(F)F)cc1 [Compound 58, 1-(2,5-Dimethyl-1-(4-(trifluoromethoxy)phenyl)-1H-pyrrol-3-yl)-2-(piperidin-1-yl)ethanone] | 500 to 5000
Cc1cc(C(=O)CN2CCC(O)CC2)c(C)n1-c1ccc(Br)c(Cl)c1 [Compound 59, 1-(1-(4-Bromo-3-chlorophenyl)-2,5-dimethyl-1H-pyrrol-3-yl)-2-(4-hydroxypiperidin-1-yl)ethanone] | 500 to 5000
Cc1cc(C(=O)CN2CCC(O)(CN(C)C)C2)c(C)n1-c1ccc(Cl)cc1 (stereo not shown) [Compound 60, 1-(1-(4-Chlorophenyl)-2,5-dimethyl-1H-pyrrol-3-yl)-2-(3-((dimethylamino)methyl)-3-hydroxypyrrolidin-1-yl)ethanone] | 500 to 5000
Cc1cc(C(=O)CN2CCCC2)c(C)n1-c1ccc(OC(F)(F)F)cc1 [Compound 61, 1-(2,5-Dimethyl-1-(4-(trifluoromethoxy)phenyl)-1H-pyrrol-3-yl)-2-(pyrrolidin-1-yl)ethanone] | 500 to 5000
Cc1cc(C(=O)CN2CCC(O)CC2)c(C)n1-c1ccc(OC(F)(F)F)cc1 [Compound 62, 1-(2,5-dimethyl-1-(4-(trifluoromethoxy)phenyl)-1H-pyrrol-3-yl)-2-(4-hydroxypiperidin-1-yl)ethanone] | 500 to 5000
COc1ccc(-n2c(C)cc(C(=O)CN3CCCCC3)c2C)cc1F [Compound 63, 1-(1-(3-Fluoro-4-methoxyphenyl)-2,5-dimethyl-1H-pyrrol-3-yl)-2-(piperidin-1-yl)ethanone] | 500 to 5000
COc1ccc(-n2c(C)cc(C(=O)CN3CCC(O)CC3)c2C)cc1F [Compound 64, 1-(1-(3-Fluoro-4-methoxyphenyl)-2,5-dimethyl-1H-pyrrol-3-yl)-2-(4-hydroxypiperidin-1-yl)ethanone] | 500 to 5000
Cc1cc(C(=O)CN2CCCCC2)c(C)n1C1CCCCC1 [Compound 65, 1-(1-Cyclohexyl-2,5-dimethyl-1H-pyrrol-3-yl)-2-(piperidin-1-yl)ethanone] | 500 to 5000
Cc1cc(C(=O)CNC2CCC(C)CC2)c(C)n1-c1ccc(Cl)cc1 (stereo not shown) [Compound 66, 1-(1-(4-Chlorophenyl)-2,5-dimethyl-1H-pyrrol-3-yl)-2-((4-methylcyclohexyl)amino)ethanone] | 500 to 5000

SMILES | IC50 [nM]
Cc1cc(C(=O)CNC2CCCCCC2)c(C)n1-c1ccc(Cl)cc1 [Compound 67, 1-(1-(4-Chlorophenyl)-2,5-dimethyl-1H-pyrrol-3-yl)-2-(cycloheptylamino)ethanone] | 500 to 5000
Cc1cc(C(=O)CN2CCCCC2)c(C)n1-c1ccc(C(F)(F)F)cc1 [Compound 68, 1-(2,5-Dimethyl-1-(4-(trifluoromethyl)phenyl)-1H-pyrrol-3-yl)-2-(piperidin-1-yl)ethanone] | 500 to 5000
Cc1cc(C(=O)CN2CCCCC2)c(C)n1-c1ccc(F)c(F)c1 [Compound 69, 1-(1-(3,4-Difluorophenyl)-2,5-dimethyl-1H-pyrrol-3-yl)-2-(piperidin-1-yl)ethanone] | 500 to 5000
Cc1cc(C(=O)CN2CCC(O)CC2)c(C)n1-c1ccc(F)c(F)c1 [Compound 70, 1-(1-(3,4-Difluorophenyl)-2,5-dimethyl-1H-pyrrol-3-yl)-2-(4-hydroxypiperidin-1-yl)ethanone] | 500 to 5000
Cc1cc(C(=O)CC2CCCCN2)c(C)n1-c1ccc(Cl)cc1 (stereo not shown) [Compound 71, 1-(1-(4-Chlorophenyl)-2,5-dimethyl-1H-pyrrol-3-yl)-2-(piperidin-2-yl)ethanone] | 500 to 5000
Cc1cc(C(=O)CC2CCCCN2C)c(C)n1-c1ccc(Cl)cc1 (stereo not shown) [Compound 72, 1-(1-(4-Chlorophenyl)-2,5-dimethyl-1H-pyrrol-3-yl)-2-(1-methylpiperidin-2-yl)ethanone] | 500 to 5000
Cc1cc(C(=O)CN2CCC(O)CC2)c(C)n1-c1ccc(F)cc1 [Compound 73, 1-(1-(4-Fluorophenyl)-2,5-dimethyl-1H-pyrrol-3-yl)-2-(4-hydroxypiperidin-1-yl)ethanone] | 500 to 5000
Cc1cc(C(=O)CN2CCC(F)CC2)c(C)n1-c1ccc(F)cc1 [Compound 74, 1-(1-(4-Fluorophenyl)-2,5-dimethyl-1H-pyrrol-3-yl)-2-(4-fluoropiperidin-1-yl)ethanone] | 500 to 5000
Cc1cc(C(=O)CN2CCC(OCC(=O)NC3CC3)CC2)c(C)n1-c1ccc(F)cc1 [Compound 75, N-Cyclopropyl-2-((1-(2-(1-(4-fluorophenyl)-2,5-dimethyl-1H-pyrrol-3-yl)-2-oxoethyl)piperidin-4-yl)oxy)acetamide] | 500 to 5000
Cc1cc(C(=O)CN2CCCCC2)c(C)n1C1CCC(F)(F)CC1 [Compound 76, 1-(1-(4,4-Difluorocyclohexyl)-2,5-dimethyl-1H-pyrrol-3-yl)-2-(piperidin-1-yl)ethanone] | 500 to 5000
Cc1cc(C(=O)CNCCO)c(C)n1-c1ccc(C#N)cc1 [Compound 77, 4-(3-(2-((2-Hydroxyethyl)amino)acetyl)-2,5-dimethyl-1H-pyrrol-1-yl)benzonitrile] | 500 to 5000
CCNC(=O)COC1CCN(CC(=O)c2cc(C)n(-c3ccc(Cl)cc3)c2C)CC1 [Compound 79, 2-((1-(2-(1-(4-Chlorophenyl)-2,5-dimethyl-1H-pyrrol-3-yl)-2-oxoethyl)piperidin-4-yl)oxy)-N-ethylacetamide] | < 500
Cc1cc(C(=O)CN2CCC(OCC(=O)N3CCCCC3)CC2)c(C)n1-c1ccc(Cl)cc1 [Compound 80, 1-(1-(4-Chlorophenyl)-2,5-dimethyl-1H-pyrrol-3-yl)-2-(4-(2-oxo-2-(piperidin-1-yl)ethoxy)piperidin-1-yl)ethanone] | < 500
Cc1cc(C(=O)CN2CCCCC2)c(C)n1-c1ccc(C#N)cc1 [Compound 81, 4-(2,5-Dimethyl-3-(2-(piperidin-1-yl)acetyl)-1H-pyrrol-1-yl)benzonitrile] | < 500
CCCNC(=O)COC1CCN(CC(=O)c2cc(C)n(-c3ccc(Cl)cc3)c2C)CC1 [Compound 83, 2-((1-(2-(1-(4-Chlorophenyl)-2,5-dimethyl-1H-pyrrol-3-yl)-2-oxoethyl)piperidin-4-yl)oxy)-N-propylacetamide] | < 500
Cc1cc(C(=O)CN2CCC(OCC(=O)NC(C)(C)C)CC2)c(C)n1-c1ccc(Cl)cc1 [Compound 84, N-(tert-Butyl)-2-((1-(2-(1-(4-chlorophenyl)-2,5-dimethyl-1H-pyrrol-3-yl)-2-oxoethyl)piperidin-4-yl)oxy)acetamide] | < 500
Cc1cc(C(=O)CN2CCCC2)c(C)n1-c1ccc(C#N)cc1 [Compound 85, 4-(2,5-Dimethyl-3-(2-(pyrrolidin-1-yl)acetyl)-1H-pyrrol-1-yl)benzonitrile] | < 500
Cc1c(C(=O)CN2CCCCC2)cc(C2CC2)n1-c1ccc(Cl)cc1 [Compound 90, 1-(1-(4-Chloropheny1)-5-cyclopropyl-2-methyl-1H-pyrrol-3-yl)-2-(piperidin-1-yl)ethanone] | < 500
Cc1c(C(=O)CN2CCCCC2)ccn1-c1ccc(Cl)cc1 [Compound 91, 1-(1-(4-Chlorophenyl)-2-methyl-1H-pyrrol-3-yl)-2-(piperidin-1-yl)ethanone] | < 500
Cc1cc(C(=O)CN2CCCC2)n(C)c1-c1ccc(Cl)cc1 [Compound 92, 1-(5-(4-Chlorophenyl)-1,4-dimethyl-1H-pyrrol-2-yl)-2-(pyrrolidin-1-yl)ethanone] | < 500

— US11746098B2, “Proteasome activity enhancing compounds” (Proteostasis Therapeutics, Inc., priority 2018, dated 2023)
